Results published in patent US20240124545A1, “COMPOSITIONS AND METHODS RELATING TO THE TREATMENT OF DISEASES” (ILC THERAPEUTICS LIMITED, priority 2021, published 2024).
pIC50: −log10 of the molar value. Values joined by “and” are separate entries in the source; they are usually repeats but may differ in a detail not shown here. Equal values may be shown once. Read-outs that look alike come from different tables or passages of the source.

Legend:
HeLa-CD4-βgal cells [1] = system: HeLa-CD4-βgal cells
HRSV Long strain = assay: HRSV infectivity assay, immunostaining readout in HEp-2 cells; type: cell-based, human respiratory syncytial virus (HRSV) Long strain
HIV-1 LAI [2] = settings: for HIV Infectivity in HeLa CD4 βgal cells (β-gal units) - antiviral control / HIV Infectivity in HeLa CD4 βgal cells, percentage of vehicle - antiviral control: single data point
HeLa-CD4-βgal cells [3] = assay: XTT viability (cytotoxicity) assay, uninfected HeLa-CD4-βgal cells (Experiment 4); settings: for Viability of HeLa-CD4-βgal cells in the XTT assay (percentage values): 48 hours, single data point; for Viability of Uninfected HeLa-CD4-β gal Cells (A490): XTT, raw absorbance 490 nm
in vitro = settings: human
HIV-1 LAI [4] = assay: microbe, parasite or virus in culture; settings: Human immunodeficiency virus 1, 48 h, read-out: IC50 (infectivity), Control HIV Inhibitors

With `C[S+](C)[O-]` [DMSO] the “Viability of Uninfected HeLa-CD4-β gal Cells (% vehicle alone), controls” value (HeLa-CD4-βgal cells [1]) was −0.5 ± 0.1 % vehicle alone.
With `NC(=O)c1ncn([C@@H]2O[C@H](CO)[C@@H](O)[C@H]2O)n1` [Rib, ribavirin, reference compound] the “HRSV infection blocked by antiviral control” value (HRSV Long strain; 50 μM) was “over 99%”, the “HRSV Infectivity in HEp-2 cells (% vehicle)” value (HRSV Long strain; control antiviral 50 μM, 72 hours) was −4.7 % vehicle and the “HRSV Infectivity in HEp-2 cells - Raw OD- Absorbance (490 nm)” value (HRSV Long strain; control antiviral 50 μM, duplicate A490 values) was 0.195 and 0.176.
With `CC(C)OC(=O)[C@H](C)N[P@](=O)(CO[C@H](C)Cn1cnc2c(N)ncnc21)Oc1ccccc1` [TAF, tenofovir alafenamide] the “HIV Infectivity in HeLa CD4 βgal cells (β-gal units) - antiviral control” value (HIV-1 LAI [2]; 0.00005 μM) was 1,043,762 RLU, the “HIV Infectivity in HeLa CD4 βgal cells, percentage of vehicle - antiviral control” value (HIV-1 LAI [2]; 0.00005 μM) was 91.9 % vehicle and the “HIV Infectivity in HeLa CD4 βgal cells (β-gal units) - antiviral control” value (HIV-1 LAI [2]; 0.0003 μM) was 1,038,889 RLU. For the same compound, the “HIV Infectivity in HeLa CD4 βgal cells, percentage of vehicle - antiviral control” value (HIV-1 LAI [2]; 0.0003 μM) was 91.5 % vehicle, the “HIV Infectivity in HeLa CD4 βgal cells (β-gal units) - antiviral control” value (HIV-1 LAI [2]; 0.001 μM) was 935,932 RLU and the “HIV Infectivity in HeLa CD4 βgal cells, percentage of vehicle - antiviral control” value (HIV-1 LAI [2]; 0.001 μM) was 82.4 % vehicle. For the same compound, the “HIV Infectivity in HeLa CD4 βgal cells (β-gal units) - antiviral control” value (HIV-1 LAI [2]; 0.006 μM) was 575,616 RLU, the “HIV Infectivity in HeLa CD4 βgal cells, percentage of vehicle - antiviral control” value (HIV-1 LAI [2]; 0.006 μM) was 50.6 % vehicle and the “HIV Infectivity in HeLa CD4 βgal cells (β-gal units) - antiviral control” value (HIV-1 LAI [2]; 0.03 μM) was 145,403 RLU. The “HIV Infectivity in HeLa CD4 βgal cells, percentage of vehicle - antiviral control” value (HIV-1 LAI [2]; 0.03 μM) was 12.6 % vehicle, the “HIV Infectivity in HeLa CD4 βgal cells (β-gal units) - antiviral control” value (HIV-1 LAI [2]; 0.2 μM) was 6,426 RLU and the “HIV Infectivity in HeLa CD4 βgal cells, percentage of vehicle - antiviral control” value (HIV-1 LAI [2]; 0.2 μM) was 0.3 % vehicle. The “HIV infection blocked by control antivirals” value (HIV-1 LAI [2]; 0.5 μM) was ~100%, the “HIV Infectivity in HeLa CD4 βgal cells (β-gal units) - antiviral control” value (HIV-1 LAI [2]; 0.8 μM) was 2,064 RLU and the “HIV Infectivity in HeLa CD4 βgal cells, percentage of vehicle - antiviral control” value (HIV-1 LAI [2]; 0.8 μM) was −0.1 % vehicle. For the same compound, the “HIV Infectivity in HeLa CD4 βgal cells (β-gal units) - antiviral control” value (HIV-1 LAI [2]; 4.0 μM) was 1,893 RLU, the “HIV Infectivity in HeLa CD4 βgal cells, percentage of vehicle - antiviral control” value (HIV-1 LAI [2]; 4.0 μM) was −0.1 % vehicle and the “HIV Infectivity in HeLa CD4 βgal cells (β-gal units) - antiviral control” value (HIV-1 LAI [2]; 20 μM) was 1,475 RLU. For the same compound, the “HIV Infectivity in HeLa CD4 βgal cells, percentage of vehicle - antiviral control” value (HIV-1 LAI [2]; 20 μM) was −0.1 % vehicle, the “HIV Infectivity in HeLa-CD4-βgal cells (% vehicle)” value (HIV-1 LAI [2]; control antiviral 0.5 μM, duplicate data points) was 0.0 % vehicle and the “HIV Infectivity in HeLa CD4 βgal cells (β-galactosidase units)” value (HIV-1 LAI [2]; control antiviral 0.5 μM, individual values) was 3,376 RLU and 3,509 RLU. For the same compound, the “Viability of HeLa-CD4-βgal cells in the XTT assay (percentage values)” value (shortened to “Viability … (percentage values)”) (HeLa-CD4-βgal cells [3]; control antiviral 0.00005 μM) was 111.5%, the “Viability of Uninfected HeLa-CD4-β gal Cells (A490)” value (shortened to “Viability … (A490)”) (HeLa-CD4-βgal cells [3]; control antiviral 0.00005 μM) was 0.951 and the “Viability … (percentage values)” value (HeLa-CD4-βgal cells [3]; control antiviral 0.0003 μM) was 101.3%. The “Viability … (A490)” value (HeLa-CD4-βgal cells [3]; control antiviral 0.0003 μM) was 0.872, the “Viability … (percentage values)” value (HeLa-CD4-βgal cells [3]; control antiviral 0.001 μM) was 104.6% and the “Viability … (A490)” value (HeLa-CD4-βgal cells [3]; control antiviral 0.001 μM) was 0.897. The “Viability … (percentage values)” value (HeLa-CD4-βgal cells [3]; control antiviral 0.006 μM) was 109.1%, the “Viability … (A490)” value (HeLa-CD4-βgal cells [3]; control antiviral 0.006 μM) was 0.932 and the “Viability … (percentage values)” value (HeLa-CD4-βgal cells [3]; control antiviral 0.03 μM) was 103.2%. For the same compound, the “Viability … (A490)” value (HeLa-CD4-βgal cells [3]; control antiviral 0.03 μM) was 0.886, the “Viability … (percentage values)” value (HeLa-CD4-βgal cells [3]; control antiviral 0.2 μM) was 104.5% and the “Viability … (percentage values)” value (HeLa-CD4-βgal cells [3]; control antiviral 0.8 μM) was 101.5%. The “Viability … (A490)” value (HeLa-CD4-βgal cells [3]; control antiviral 0.8 μM) was 0.873, the “Viability … (percentage values)” value (HeLa-CD4-βgal cells [3]; control antiviral 4.0 μM) was 104.1% and the “Viability … (A490)” value (HeLa-CD4-βgal cells [3]; control antiviral 4.0 μM) was 0.894. The “Viability … (percentage values)” value (HeLa-CD4-βgal cells [3]; control antiviral 20 μM) was 88.2%, the “Viability … (A490)” value (HeLa-CD4-βgal cells [3]; control antiviral 20 μM) was 0.770 and the CC50 at 48 h (in vitro) was > 20000 nM. It also gave a pIC50 (HIV-1 LAI [4]) of 8.10.
